PubChem BioAssay (NCI)
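Exposure lasted 48 hours, with cells grown in 96-well plates and compounds tested at five concentrations. Abbreviation: GI50, concentration required for 50% inhibition of growth. TGI is the concentration that stops growth completely.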

Key:
Test in all cases: growth of human tumour cells (NCI), 48 h
UO-31 renal = system: UO-31 renal
NCI-H460 lung = system: NCI-H460 lung
SF-268 CNS = system: SF-268 CNS
HL-60(TB) leukemia = system: HL-60(TB) leukemia
IGROV1 ovarian = system: IGROV1 ovarian
RXF 393 renal = system: RXF 393 renal
UACC-257 melanoma = system: UACC-257 melanoma
SK-MEL-2 melanoma = system: SK-MEL-2 melanoma
NCI/ADR-RES ovarian = system: NCI/ADR-RES ovarian
HS 578T breast = system: HS 578T breast

| SMILES | TGI (UO-31 renal) [µM] | TGI (NCI-H460 lung) [µM] | TGI (SF-268 CNS) [µM] | TGI (HL-60(TB) leukemia) [µM] | TGI (IGROV1 ovarian) [µM] | TGI (RXF 393 renal) [µM] | TGI (UACC-257 melanoma) [µM] | TGI (SK-MEL-2 melanoma) [µM] | GI50 (UO-31 renal) [µM] | GI50 (NCI-H460 lung) [µM] | GI50 (SF-268 CNS) [µM] | GI50 (NCI/ADR-RES ovarian) [µM] | TGI (NCI/ADR-RES ovarian) [µM] | GI50 (HS 578T breast) [µM] | TGI (HS 578T breast) [µM] | GI50 (IGROV1 ovarian) [µM] | GI50 (SK-MEL-2 melanoma) [µM] | GI50 (UACC-257 melanoma) [µM] | GI50 (RXF 393 renal) [µM] | GI50 (HL-60(TB) leukemia) [µM] |
| --- | --- | --- | --- | --- | --- | --- | --- | --- | --- | --- | --- | --- | --- | --- | --- | --- | --- | --- | --- | --- |
| O=C(NCCOCCO)c1ccc(O)cc1 | > 100 | > 100 | > 100 | > 100 | > 100 | > 100 | – | – | – | – | – | – | – | – | – | – | – | – | – | – |
| C[C@]12CC[C@H](O)CC1CCC[C@@H]2O (stereo not given in full) | > 100 | > 100 | > 100 | > 100 | > 100 | > 100 | > 100 | > 100 | – | – | – | – | – | – | – | – | – | – | – | – |
| COC(=O)/C=C/c1cc(OC)c2c(c1)[C@@H](C(=O)OC)[C@H](c1ccc(OC)c(OC)c1)O2 | > 100 | > 100 | > 100 | – | > 100 | – | > 100 | > 100 | 3.4 | 3.9 | 2.91 | 0.768 | > 100 | 1.7 | > 100 | 3.84 | 2.8 | – | – | – |
| CN1CCN(C(=S)N(C(=O)c2ccc(Cl)cc2)C2CCCCC2)CC1 | > 100 | > 100 | > 100 | > 100 | > 100 | > 100 | > 100 | > 100 | – | – | – | – | – | – | > 100 | – | – | – | – | – |
| Cn1c(=O)c2nc3sc4ccccc4c(=N)n3c2n(C)c1=O | > 100 | > 100 | > 100 | > 100 | > 100 | > 100 | > 100 | > 100 | – | – | – | – | – | – | – | – | – | – | – | – |
| O=c1c(-c2nc3ccccc3[nH]2)cc2ccccc2n1Cc1cn(Cc2ccc(F)cc2)nn1 | > 100 | > 100 | 57.6 | – | > 100 | 0.484 | > 100 | 10.2 | 0.327 | 0.0435 | 0.259 | 1.28 | 19.2 | 0.0546 | 1.18 | 0.221 | 0.348 | > 100 | 0.125 | – |
| NC1=C(O)/C(=N/NS(=O)(=O)c2ccccc2)C(c2cccc(Cl)c2)O1 (stereo not given) | 33.5 | > 100 | > 100 | 12.5 | > 100 | 29.6 | > 100 | 66 | – | – | – | – | – | – | 95.1 | – | – | – | – | – |
| Cc1ccc(Sc2cc([N+](=O)[O-])cc(Sc3ccc(C)cc3)c2Sc2ccc(C)cc2)cc1 | > 100 | > 100 | > 100 | > 100 | > 100 | > 100 | > 100 | > 100 | – | – | – | – | – | – | – | – | – | – | – | – |
| Cn1c(=O)ccc2cc(C(=O)c3ccccc3)ccc21 | – | > 100 | > 100 | > 100 | > 100 | – | – | > 100 | – | – | – | – | – | – | – | – | – | – | – | – |
| O=C1CCC(=O)C12CCc1ccccc12 | > 100 | > 100 | > 100 | > 100 | > 100 | > 100 | – | – | – | – | – | – | – | – | – | – | – | – | – | – |
| C=C1[C@@H]2CCC(C)(C)[C@H]1CCC(=O)[C@@H]2C(=O)OC | > 100 | > 100 | > 100 | > 100 | > 100 | > 100 | > 100 | > 100 | – | – | – | – | – | – | – | – | – | – | – | – |
| COc1cc(/C=C/C(=O)c2ccc(SC)cc2)cc(OC)c1OC | 23 | 32.6 | 37.8 | – | – | 7.01 | 18.1 | 31.6 | 10.8 | 15 | 16 | 4.68 | 26.4 | 12.3 | 37 | – | 17 | 5.45 | 2.62 | – |
| OC1OC2COC(c3ccccc3)OC2C(O)C1O (stereo not given) | > 100 | > 100 | > 100 | > 100 | > 100 | – | > 100 | > 100 | – | – | – | – | – | – | – | – | – | – | – | – |
| Nc1c(-c2ccc(-c3c(N)[n+]([O-])c4ccccc4[n+]3[O-])cc2)[n+]([O-])c2ccccc2[n+]1[O-] | 32.6 | 37.3 | 66.2 | > 100 | 47.5 | – | 13.8 | 28.9 | – | – | – | – | – | – | – | – | – | – | – | – |
| C/C(=N\O)c1ccc(Nc2cc(-c3ccccc3)nc3c(O)cccc23)cc1 | 33.7 | – | – | 96.6 | 34.6 | 24.7 | 24.4 | 36.8 | 14.8 | – | – | 8.54 | 35.5 | 15.9 | 62.4 | 17.1 | 17.3 | 11.7 | 7.47 | 0.585 |
| COc1ccc(S(=O)(=O)Nc2c(/C=C\c3cc(OC)c(OC)c(OC)c3)ccc(OC)c2O)cc1OC | > 100 | > 100 | > 100 | > 100 | > 100 | – | > 100 | > 100 | 0.864 | 0.283 | 1.29 | 1.58 | > 100 | 0.251 | > 100 | 0.358 | 2.05 | > 78.2 | – | 0.338 |
| COc1ccc(/C=C\c2cc(OC)c(OC(C)=O)c(OC)c2)cc1 | 50.1 | – | > 100 | – | > 100 | – | 95.1 | 58.8 | – | – | – | – | – | – | – | – | – | – | – | – |
| COc1cccc(/C=N/[N-]C(N)=O)c1[O-].[Cu+2].c1ccncc1 | 44.3 | 31.9 | 39.2 | 55.1 | 49.9 | 28.6 | > 100 | 58.5 | – | – | – | – | – | – | – | – | – | – | – | 26.5 |
| O=C1OC(=O)C2C1C1(c3ccccc3)OC2(c2ccccc2)c2c(Br)c(Br)c(Br)c(Br)c21 (stereo not given) | > 100 | > 100 | > 100 | > 100 | > 100 | > 100 | > 100 | > 100 | – | – | – | – | – | – | – | – | – | – | – | – |
| CCN(CC)[C@@H]1c2cc3c(cc2C(c2cc(OC)c(O)c(OC)c2)C2C(=O)CO[C@@H]21)OCO3 (stereo not given in full) | > 100 | > 100 | > 100 | > 100 | > 100 | > 100 | > 100 | > 100 | – | – | – | – | – | – | – | – | – | – | – | – |
| CCC1(O)CC(c2ccccc2)N(C)C(c2ccccc2)C1 (stereo not given) | > 100 | > 100 | > 100 | > 100 | > 100 | > 100 | > 100 | > 100 | – | – | – | – | – | – | – | – | – | – | – | – |
| O=C1OC(/C=C/c2ccccc2)C(=O)C1=O (stereo not given) | > 100 | > 100 | > 100 | > 100 | > 100 | > 100 | > 100 | > 100 | – | – | – | – | – | – | – | – | – | – | – | – |
